For one experiment, the system named is HEK293T cells. The experiment can be described thus: Drug sensitivity assay (CellTiter-Glo viability) with or without MLN4924 pretreatment. Type of experiment: cell-based, human. The following applies: for EC50: Homo sapiens, HEK-293T; for Toxicity rescue: MLN4924-mediated cytotoxicity rescue, 10 µM used where n.d. The essentials:
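HEK293T–Cas9, 0.15 × 10^6 ml^−1; pretreat DMSO vs 100 nM MLN4924; drugs dispensed after 2 h; 3 d exposure; CellTiter-Glo; viability vs DMSO control.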
For orientation: In ATP-based viability assays light output follows the ATP content of the culture.

Experiment [1] relates to cyclin K–eGFP degradation reporter. The experiment can be described thus: Cyclin K reporter stability analysis (dual-color cyclin K–eGFP reporter). Type of experiment: cell-based, human. The essentials:
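Readout was the eGFP-to-mCherry geometric-mean ratio by flow cytometry, normalized to three DMSO controls, after 5 h drug exposure. Cells used were HEK293T–Cas9 expressing the dual-colour cyclin K–eGFP degradation reporter.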

The target in another experiment is T1, CDK12–cyclin K and DDB1 (Homo sapiens, UniProt Q16531+Q9NYV4, K965R).
T1 construct: His6–CDK12 (a.a. 713–1,052); full-length or beta-propeller B domain deletion (ΔBPB: a.a. 396–705 deleted) constructs of His6–DDB1ΔBPB, StrepII–Avi–DDB1, or His6–Spy–DDB1; made in house; host or cells: Trichoplusia ni High Five insect cells (baculovirus)
Kind of experiment: TR-FRET ternary complex formation assay (compound titration). Type of experiment: binding. The essentials:
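Signal was the ratio of 520 nm to 490 nm fluorescence, measured after a 70 μs delay that reduced background.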
In general terms: Time-resolved FRET reads energy transfer from a long-lived donor to a nearby acceptor.

[2] abbreviates: Supplementary Table 2, HEK293T viability, 72 h, compound alone, read-out: Cellular assays EC50.

Where “and” joins values, the source holds several entries; their conditions need not be identical. Equal values may be shown once. Read-outs that look alike come from different tables or passages of the source. Bounds are passed on as bounds.

T1 sequence (Q9NYV4 713-1052 K965R): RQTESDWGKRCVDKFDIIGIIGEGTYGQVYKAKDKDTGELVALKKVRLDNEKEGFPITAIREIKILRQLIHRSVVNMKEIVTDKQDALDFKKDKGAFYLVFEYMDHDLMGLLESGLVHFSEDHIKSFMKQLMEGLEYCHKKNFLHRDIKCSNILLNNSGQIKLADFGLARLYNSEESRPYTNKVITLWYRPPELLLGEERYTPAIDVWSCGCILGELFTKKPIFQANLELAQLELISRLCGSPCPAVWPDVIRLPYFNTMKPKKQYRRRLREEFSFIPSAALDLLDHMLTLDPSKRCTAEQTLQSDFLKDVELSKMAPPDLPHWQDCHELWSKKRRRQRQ
T1 sequence (O75909 1-267 partner): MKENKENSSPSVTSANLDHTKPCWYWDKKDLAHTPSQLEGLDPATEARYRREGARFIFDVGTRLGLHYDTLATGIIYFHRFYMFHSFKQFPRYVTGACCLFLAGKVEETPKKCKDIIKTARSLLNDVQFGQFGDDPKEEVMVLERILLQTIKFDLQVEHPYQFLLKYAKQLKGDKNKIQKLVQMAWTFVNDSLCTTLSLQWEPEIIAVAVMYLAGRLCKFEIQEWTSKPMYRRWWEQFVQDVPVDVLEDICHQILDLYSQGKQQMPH
T1 sequence (Q16531 whole entry): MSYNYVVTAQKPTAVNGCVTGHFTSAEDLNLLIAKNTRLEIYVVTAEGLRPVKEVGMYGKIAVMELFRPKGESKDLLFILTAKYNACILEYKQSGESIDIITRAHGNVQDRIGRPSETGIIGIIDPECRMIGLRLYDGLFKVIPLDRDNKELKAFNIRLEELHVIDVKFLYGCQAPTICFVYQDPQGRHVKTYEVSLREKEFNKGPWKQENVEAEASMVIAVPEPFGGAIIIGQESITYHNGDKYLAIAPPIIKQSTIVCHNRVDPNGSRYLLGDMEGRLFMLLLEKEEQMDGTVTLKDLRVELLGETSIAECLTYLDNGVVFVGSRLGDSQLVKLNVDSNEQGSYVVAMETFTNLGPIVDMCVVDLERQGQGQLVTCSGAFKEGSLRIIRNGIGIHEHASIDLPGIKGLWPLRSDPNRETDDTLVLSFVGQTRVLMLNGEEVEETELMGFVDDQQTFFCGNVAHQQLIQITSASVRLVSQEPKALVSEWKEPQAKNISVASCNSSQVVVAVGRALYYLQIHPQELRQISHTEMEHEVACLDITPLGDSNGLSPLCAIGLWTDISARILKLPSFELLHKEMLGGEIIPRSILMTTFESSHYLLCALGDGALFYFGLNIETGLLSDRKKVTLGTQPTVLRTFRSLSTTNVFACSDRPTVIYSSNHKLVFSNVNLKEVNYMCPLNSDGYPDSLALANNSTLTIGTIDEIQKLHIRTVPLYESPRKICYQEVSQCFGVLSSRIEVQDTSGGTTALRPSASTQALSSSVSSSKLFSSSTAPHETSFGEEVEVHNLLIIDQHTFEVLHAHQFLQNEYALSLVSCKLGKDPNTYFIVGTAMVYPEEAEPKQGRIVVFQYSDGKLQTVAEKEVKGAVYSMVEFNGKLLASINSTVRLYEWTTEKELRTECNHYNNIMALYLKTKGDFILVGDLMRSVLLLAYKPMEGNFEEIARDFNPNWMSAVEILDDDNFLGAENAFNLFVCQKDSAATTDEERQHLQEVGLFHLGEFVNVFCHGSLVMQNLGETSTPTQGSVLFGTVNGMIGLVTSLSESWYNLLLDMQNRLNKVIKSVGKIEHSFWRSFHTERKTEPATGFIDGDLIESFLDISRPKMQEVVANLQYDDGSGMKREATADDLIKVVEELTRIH

For `CC[C@H](CO)Nc1nc(NCc2ccc(-c3ccncc3)nc2)c2ncn(C(C)C)c2n1` [DS53], the EC50 (commonly the concentration at which the effect is half-maximal) with HEK293T cells (setting [2]) worked out at 635 nM; on CDK12–cyclin K and DDB1 (in vitro complex formation, 50 nM CDK12–cyclin K, 100 nM DDB1, text and figures, read-out: TR-FRET EC50) it was 28 ± 2 nM; on CDK12–cyclin K and DDB1 (source data sheet correlations, read-out: TR-FRET EC50) it was 27.7 nM. In addition, the Toxicity rescue in the experiment on HEK293T cells (Supplementary Table 2) is given as 140%. Further, the DC50 – broadly, the concentration at which degradation of the target reaches its halfway point – in experiment [1] (source data sheet correlations, read-out: DC50) was 260 nM. The “TR-FRET signal at compound concentration 0.468 nM” value on CDK12–cyclin K and DDB1 (compound concentration 0.468 nM, raw titration data) was 0.2712 and 0.18 and 0.1818. For the same compound, the “TR-FRET signal at compound concentration 2.16 nM” value on CDK12–cyclin K and DDB1 (compound concentration 2.16 nM, raw titration data) was 0.3079 and 0.2048 and 0.2158. In addition, the “TR-FRET signal at compound concentration 3.6 nM” value on CDK12–cyclin K and DDB1 (compound concentration 3.6 nM, raw titration data) is 0.3797 and 0.262 and 0.2749. Moreover, the “TR-FRET signal at compound concentration 7.92001 nM” value on CDK12–cyclin K and DDB1 (compound concentration 7.92001 nM, raw titration data) is 0.5132 and 0.3757 and 0.3886. Besides, at CDK12–cyclin K and DDB1 (compound concentration 15.84 nM, raw titration data), the “TR-FRET signal at compound concentration 15.84 nM” value is 0.7262 and 0.5713 and 0.5982. For the same compound, the “TR-FRET signal at compound concentration 30.96 nM” value at CDK12–cyclin K and DDB1 (compound concentration 30.96 nM, raw titration data) is 1.044 and 0.9086 and 0.9152. Further, on CDK12–cyclin K and DDB1 (compound concentration 62.6401 nM, raw titration data), the “TR-FRET signal at compound concentration 62.6401 nM” value is 1.465 and 1.176 and 1.2036. Moreover, the “TR-FRET signal at compound concentration 125.28 nM” value at CDK12–cyclin K and DDB1 (compound concentration 125.28 nM, raw titration data) is 1.697 and 1.379 and 1.374. The “TR-FRET signal at compound concentration 244.8 nM” value on CDK12–cyclin K and DDB1 (compound concentration 244.8 nM, raw titration data) is 1.763 and 1.446 and 1.498. The “TR-FRET signal at compound concentration 993.601 nM” value on CDK12–cyclin K and DDB1 (compound concentration 993.601 nM, raw titration data) is 1.748 and 1.523 and 1.543. The “TR-FRET signal at compound concentration 2001.6 nM” value at CDK12–cyclin K and DDB1 (compound concentration 2001.6 nM, raw titration data) is 1.731 and 1.529 and 1.559.
As for `Cn1cc(-n2cnc3c(NCc4nc5cc(O)ccc5[nH]4)nc(N4CCOCC4)nc32)cn1` [DS54], the EC50 is 3290 nM in the experiment with HEK293T cells (Supplementary Fig. 5, HEK293T, CellTiter Glo, 72h, pre-treatment with 100 nM MLN4924, read-out: Viability EC50, with MLN4924); 73 nM in the experiment on HEK293T cells (Supplementary Fig. 5, HEK293T, CellTiter Glo, 72h, read-out: Viability EC50, no MLN4924); greater than 10000 nM with HEK293T cells (setting [2]); 252 nM on CDK12–cyclin K and DDB1 (Supplementary Table 2, read-out: TR-FRET EC50 TR-FRET). For the same compound, the Toxicity rescue in the experiment with HEK293T cells (Supplementary Table 2) was 0%. The DC50 in experiment [1] (Supplementary Table 2, HEK293T cycK-eGFP reporter, 5 h, read-out: Cellular assays DC50) is greater than 10000 nM. The TR-FRET signal at CDK12–cyclin K and DDB1 (compound concentration 4.68 nM) was 0.1326 and 0.1303; at CDK12–cyclin K and DDB1 (compound concentration 21.6 nM) it was 0.1333 and 0.1406; on CDK12–cyclin K and DDB1 (compound concentration 36 nM), 0.1624 and 0.1682; at CDK12–cyclin K and DDB1 (compound concentration 79.2001 nM) it was 0.2054 and 0.2174; on CDK12–cyclin K and DDB1 (compound concentration 158.4 nM) it was 0.3007; on CDK12–cyclin K and DDB1 (compound concentration 309.6 nM), 0.4286 and 0.4588. The TR-FRET signal on CDK12–cyclin K and DDB1 (compound concentration 626.401 nM) was 0.5953 and 0.5848; on CDK12–cyclin K and DDB1 (compound concentration 1252.8 nM), 0.6865 and 0.6689; at CDK12–cyclin K and DDB1 (compound concentration 2448 nM) it was 0.7142 and 0.68; at CDK12–cyclin K and DDB1 (compound concentration 9936.01 nM) it was 0.6777 and 0.6603; at CDK12–cyclin K and DDB1 (compound concentration 20016 nM) it was 0.6177 and 0.617. Besides, the “TR-FRET signal at compound concentration 4.68 nM” value on CDK12–cyclin K and DDB1 (compound concentration 4.68 nM, raw replicate titration data) was 0.1326 and 0.1303. In addition, the “TR-FRET signal at compound concentration 21.6 nM” value on CDK12–cyclin K and DDB1 (compound concentration 21.6 nM, raw replicate titration data) was 0.1333 and 0.1406. Moreover, the “TR-FRET signal at compound concentration 36 nM” value on CDK12–cyclin K and DDB1 (compound concentration 36 nM, raw replicate titration data) was 0.1624 and 0.1682. Besides, the “TR-FRET signal at compound concentration 79.2001 nM” value on CDK12–cyclin K and DDB1 (compound concentration 79.2001 nM, raw replicate titration data) was 0.2054 and 0.2174. The “TR-FRET signal at compound concentration 158.4 nM” value on CDK12–cyclin K and DDB1 (compound concentration 158.4 nM, raw replicate titration data) was 0.3007. In addition, on CDK12–cyclin K and DDB1 (compound concentration 309.6 nM, raw replicate titration data), the “TR-FRET signal at compound concentration 309.6 nM” value was 0.4286 and 0.4588. Also, the “TR-FRET signal at compound concentration 626.401 nM” value on CDK12–cyclin K and DDB1 (compound concentration 626.401 nM, raw replicate titration data) is 0.5953 and 0.5848. For the same compound, the “TR-FRET signal at compound concentration 1252.8 nM” value on CDK12–cyclin K and DDB1 (compound concentration 1252.8 nM, raw replicate titration data) is 0.6865 and 0.6689. The “TR-FRET signal at compound concentration 2448 nM” value on CDK12–cyclin K and DDB1 (compound concentration 2448 nM, raw replicate titration data) was 0.7142 and 0.68. The “TR-FRET signal at compound concentration 9936.01 nM” value on CDK12–cyclin K and DDB1 (compound concentration 9936.01 nM, raw replicate titration data) was 0.6777 and 0.6603. In addition, on CDK12–cyclin K and DDB1 (compound concentration 20016 nM, raw replicate titration data), the “TR-FRET signal at compound concentration 20016 nM” value was 0.6177 and 0.617.

The values are drawn from PMC10746543, “Design principles for cyclin K molecular glue degraders” (Nature Chemical Biology, 2023).
